This passage reports TGI results from PubChem BioAssay (NCI).

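Where inhibition never reached the appropriate level, the endpoint shown equals the highest concentration tested. Otherwise, values were interpolated linearly from a five-concentration, 48-hour dose response in 96-well plates. The concentration for full growth arrest is given as TGI.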 A value given as a limit tells only on which side of the number the result lay.

Test systems include DLD-1 colon; DMS 114 small cell lung; DMS 273 small cell lung; KM20L2 colon; LXFL 529 NSCLC; M19-MEL melanoma; NCI-H23 lung; NCI-H522 lung; SN12C renal; SNB-78 CNS; XF 498 CNS; HOP-18 NSCLC; RXF-631 renal; UO-31 renal; P388 leukemia; P388/ADR leukemia; SN12K1 renal.
Holding throughout (test): NCI tumour cell line growth inhibition, 48 h

Turning to `N#CN=Nc1cc(Cl)c(N=NC#N)cc1Cl`, the TGI in the test on DLD-1 colon, in the test on DMS 114 small cell lung, in the test on DMS 273 small cell lung, in the test on KM20L2 colon, with LXFL 529 NSCLC and in the test on M19-MEL melanoma was more than 100 µM each time. Moreover, the TGI in the test with NCI-H23 lung, in the test with NCI-H522 lung, with SN12C renal, in the test on SNB-78 CNS and in the test on XF 498 CNS was more than 100 µM each time.
Take `CCSC(=Nc1ccccc1)SC`: the TGI in the test with DLD-1 colon, with DMS 114 small cell lung, with DMS 273 small cell lung, in the test on HOP-18 NSCLC, in the test on KM20L2 colon and in the test with LXFL 529 NSCLC was more than 100 µM in each case. Also, the TGI in the test on M19-MEL melanoma, with NCI-H23 lung, in the test on NCI-H522 lung, with RXF-631 renal, in the test on SN12C renal and with SNB-78 CNS was more than 100 µM in each case. Further, the TGI in the test with UO-31 renal and in the test with XF 498 CNS was more than 100 µM in each case.
For `CN(C)CCOc1cc2c(c3ccccc13)-c1ccccc1C2=O`, the TGI in the test with DLD-1 colon amounted to 4.01 µM; in the test with DMS 114 small cell lung, 2.65 µM; with DMS 273 small cell lung it was 1.85 µM; in the test with HOP-18 NSCLC, 8.58 µM; in the test on KM20L2 colon it was 5.3 µM; in the test with M19-MEL melanoma, 2.89 µM. Moreover, the TGI in the test on NCI-H23 lung is 5.24 µM; in the test on NCI-H522 lung it was 3.08 µM; in the test with P388 leukemia, 2.7 µM; with P388/ADR leukemia it was 1.95 µM; in the test with SN12C renal it was 7.43 µM; with SN12K1 renal, 2.04 µM. The TGI worked out at 23 µM in the test on SNB-78 CNS, 3.15 µM with UO-31 renal and 3.28 µM in the test on XF 498 CNS.
Take `CC(N)Cc1cccc(C(F)(F)F)c1` (stereo not given): the TGI in the test on DLD-1 colon, in the test with DMS 114 small cell lung, in the test with DMS 273 small cell lung, with HOP-18 NSCLC, with KM20L2 colon and with LXFL 529 NSCLC was more than 100 µM each time. The TGI with M19-MEL melanoma, in the test with NCI-H23 lung, in the test on NCI-H522 lung, in the test with RXF-631 renal, in the test with SN12C renal and in the test with SNB-78 CNS was more than 100 µM each time. The compound also returned a TGI in the test on UO-31 renal of more than 100 µM.
With `CC1(C)S[C@@H]2[C@H](NC(=O)CCC[C@@H](N)C(=O)O)C(=O)N2[C@H]1C(=O)O`, the TGI in the test with DLD-1 colon is more than 50 µM; in the test with DMS 273 small cell lung, more than 50 µM; with HOP-18 NSCLC, more than 50 µM; with KM20L2 colon, more than 28 µM; in the test with M19-MEL melanoma, more than 50 µM; with NCI-H23 lung it was more than 50 µM. The TGI with NCI-H522 lung, with P388 leukemia, in the test on P388/ADR leukemia, in the test on SN12C renal, in the test on SN12K1 renal and in the test on SNB-78 CNS was more than 50 µM throughout. Further, the TGI is more than 50 µM with UO-31 renal and more than 42 µM in the test on XF 498 CNS.
Turning to `CS(=O)(=O)c1nc(N)nc2nc[nH]c12`, the TGI in the test on DLD-1 colon, with DMS 114 small cell lung, with DMS 273 small cell lung, with HOP-18 NSCLC, with KM20L2 colon and in the test with LXFL 529 NSCLC was more than 100 µM throughout. For the same compound, the TGI in the test with M19-MEL melanoma, in the test on NCI-H23 lung, with NCI-H522 lung, with SN12C renal, with SNB-78 CNS and in the test on UO-31 renal was more than 100 µM throughout. The compound also displayed a TGI in the test with XF 498 CNS of more than 100 µM.
Consider `CCCCOC(=O)CN1C(=O)c2ccccc2C1=O`, for which the TGI with DLD-1 colon, with DMS 273 small cell lung, in the test with KM20L2 colon, in the test on M19-MEL melanoma, in the test with NCI-H23 lung and in the test on NCI-H522 lung was more than 100 µM each time. In addition, the TGI in the test on SNB-78 CNS, with UO-31 renal and in the test with XF 498 CNS was more than 100 µM in each case.
In the case of `O=C(O)C(Cc1ccc(O)cn1)NC(=O)C(F)(F)F` (stereo not given), the TGI in the test on NCI-H23 lung, in the test on NCI-H522 lung, in the test on SN12C renal and in the test with UO-31 renal was more than 100 µM in each case.
For `NC(=O)/N=C(\N)NC(=O)c1ccccc1`, the TGI in the test on NCI-H23 lung, with NCI-H522 lung, with SN12C renal and with UO-31 renal was more than 100 µM in each case.
With `CC1(C)C(O)c2ccccc2OC1N1CCN(C2Oc3ccccc3C(O)C2(C)C)CC1` (stereo not given), the TGI with NCI-H23 lung, in the test on NCI-H522 lung, in the test with SN12C renal and in the test on UO-31 renal was more than 100 µM in each case.
Take `COC(=O)CCc1ccc2c(c1)CCC2`: the TGI in the test on NCI-H23 lung, in the test on NCI-H522 lung, in the test with SN12C renal and in the test with UO-31 renal was more than 100 µM each time.
In the case of `O=C(CCl)N1CCCCC1C1(c2cc3ccccc3[nH]2)OCCO1` (stereo not given), the TGI was found to be 8.47 µM in the test on NCI-H23 lung, 0.448 µM in the test with NCI-H522 lung, 9.85 µM with SN12C renal and 11.3 µM in the test on UO-31 renal.
Turning to `O=C1CC2[C@@H](N3CCCC3)CCC(N1Cc1ccccc1)C2(O)O` (stereo not given in full), the TGI in the test on NCI-H23 lung, with NCI-H522 lung, in the test on SN12C renal and with UO-31 renal was more than 100 µM each time.
`CN(C)c1ccc(N=Nc2cccc3ccoc23)cc1`: the TGI in the test with NCI-H23 lung is more than 100 µM; with NCI-H522 lung, more than 100 µM; with SN12C renal, more than 100 µM; with UO-31 renal, more than 74.3 µM.
On to `O=C(O)C(Cc1cccs1)NC(=O)C(F)(F)F` (stereo not given), for which the TGI in the test on DLD-1 colon, in the test with DMS 114 small cell lung, with DMS 273 small cell lung, in the test on HOP-18 NSCLC, in the test on KM20L2 colon and in the test with M19-MEL melanoma was more than 100 µM each time. The TGI in the test on NCI-H23 lung, in the test with NCI-H522 lung, in the test with P388 leukemia, in the test with P388/ADR leukemia, with SN12C renal and in the test with SN12K1 renal was more than 100 µM throughout. In the test on UO-31 renal, this compound showed a TGI of more than 100 µM.
As for `NCC(=O)C(O)C(O)C(O)CO` (stereo not given), the TGI with NCI-H23 lung, in the test on NCI-H522 lung, with SN12C renal and in the test on UO-31 renal was more than 100 µM throughout.
For the compound `O=C(NO)c1cccc(OCc2ccc(Br)cc2)c1`, the TGI came out at 17.7 µM in the test with NCI-H23 lung, 16.2 µM with NCI-H522 lung, 12.8 µM in the test with SN12C renal and 14.4 µM in the test with UO-31 renal.
In the same order, the values of `O=C(NNC(=S)Nc1ccccc1)C12CC3CC(CC(C3)C1)C2` are more than 100 µM, more than 100 µM, more than 100 µM and more than 100 µM.
The matching figures for `COC(=O)c1ccccc1C1CN=NC12Cc1c(C)cc(C)cc1C2=O` (stereo not given): more than 100 µM, more than 100 µM, more than 100 µM and more than 100 µM.
For `COc1ccc(C)c2c1N[C@](C)([C@]1(C)Nc3c(OC)ccc(C)c3C1=O)C2=O`, the TGI with NCI-H23 lung, in the test with NCI-H522 lung, in the test on SN12C renal and in the test on UO-31 renal was more than 100 µM in each case.
Take `COC(=O)c1cc(C#N)[nH]c1-c1ccsc1`: the TGI in the test on NCI-H23 lung, in the test with NCI-H522 lung, in the test with SN12C renal and in the test with UO-31 renal was more than 100 µM each time.
`Cc1ccc2c(c1)C(=O)/C(=C1/CCc3ccc(C)cc31)C2`: the TGI in the test with NCI-H23 lung, in the test on NCI-H522 lung, in the test with SN12C renal and in the test on UO-31 renal was more than 100 µM each time.
Take `CCCSc1cc(Cl)c(C)cc1S(=O)(=O)n1cc[nH]c1=O`: the TGI with NCI-H23 lung, in the test on NCI-H522 lung, in the test with SN12C renal and in the test with UO-31 renal was more than 100 µM in each case.
Take `O=C(OCc1ccccc1)N1CCNCCNCC1`: the TGI with NCI-H23 lung, in the test with NCI-H522 lung, in the test on SN12C renal and with UO-31 renal was more than 100 µM in each case.
Regarding `CC(=O)C1(c2ccccc2)CCN(Cn2sc3nc(C)cc(C)c3c2=O)CC1`, the TGI was 41.6 µM in the test on NCI-H23 lung, 29 µM in the test on NCI-H522 lung, 49.8 µM in the test on SN12C renal and 31.8 µM with UO-31 renal.
